Data taken from article PMC3509570, “Bioavailability and Brain-Targeting of Geniposide in Gardenia-Borneol Co-Compound by Different Administration Routes in Mice” (International Journal of Molecular Sciences, 2012).
Values joined by “and” are separate entries in the source; they are usually repeats but may differ in a detail not shown here. Identical values can stand only once. Like-named read-outs stand apart in the source and are kept apart here.

Tests used:
[1] = cited from earlier work
[2] = Plasma pharmacokinetics of Ge in mice after i.v., i.n. and i.g. administration of Gardenia-Borneol co-compound; format: in vivo; settings: for bioavailability / Cmax / AUC(0-t) / MRT last / Tmax: mouse; for bioavailability: read-out: F (absolute bioavailability); for Cmax / AUC(0-t) / MRT last / Tmax: 18 mg/kg gardenia extract + 18 mg/kg borneol; for AUC(0-t): read-out: AUC0–120 (converted); for MRT last: read-out: MRT0–120 (converted)
Method: Non-compartmental analysis of pharmacokinetic data was performed by Kinetica 4.4 software. The absolute bioavailability was F, F = AUCblood (i.n./i.g.)/AUCblood (i.v.) × 100%.
(§1) The separation was carried out using a Diamonsil C18 column ([…], i.d., 5.0 μm) under the following chromatographic conditions: column temperature, 25 °C; sample injection volume, 20 μL; flow rate, 1.0 mL/min; detection wavelength, 238 nm; and mobile phase, acetonitrile-water(14:86).
(§2) 1% (v/v) of Tween-80 and 20% (v/v) ethanol were dissolved in physiological saline and used as the solvent for drugs. 1.2 g of borneol fine powder and 1.2 g gardenia extract were dissolved into 10 mL solvent, named as co-compound nasal drops. Dilute 0.3 mL of nasal drops precisely with 1% Tween 80-normal saline solution into 10 mL, filtrate by 0.22 μm filter, named as co-compound injection. Dilute 0.3 mL of nasal drops precisely with 1% Tween 80-normal saline solution into 10 mL, named as co-compound intragastric solution.
(§3) 120 mice were divided into 3 groups (A, B, C), equally and randomly, 40 for each group. Group A was injected 0.1 mL co-compound injection via the tail vein. Group B was treated 3 μL nasal drops with a soft PE polyethylene tube after anesthesia by ether steam. Group C was treated 0.1 mL co-compound intragastric solution. The doses chosen for the mice were 18mg/kg·d (borneol and gardenia extract, respectively), 3 times based on the doses for human beings. The blood samples were collected into heparinized tubes by pricking the eyeball. Then, mice were killed by decollation. The corresponding brains were also collected at 1, 3, 5, 10, 30, 60, 90 and 120 min after drug administration. The brains were accurately weighed, and plasma was obtained after centrifugation. The sample processing and determination were immediately made when plasma and brain tissue were obtained.
Plasma sample (100 μL) was placed into a centrifuge tube. To precipitate proteins in the sample, 300 μL acetonitrile was added and vortexed for 1 min. After centrifugation at 10,000 rpm for 10 min, supernatant was removed and evaporated under air stream in a water bath at 60 °C. The residue was dissolved in 100 μL of methanol and vortexed for 30 s, centrifuged at 10,000 rpm for 10 min. 20 μL of supernatant was injected into the HPLC system for analysis.

[3] = Brain pharmacokinetics and brain targeting of Ge in mice after i.v., i.n. and i.g. administration of Gardenia-Borneol co-compound; format: in vivo; settings: for Kp / MRT last / Cmax / Tmax / AUC(0-t): mouse; for Kp: read-out: Te (brain/blood drug ratio); for MRT last / Cmax / Tmax / AUC0–120 / AUC(0-t): brain; for Cmax: 18 mg/kg gardenia extract + 18 mg/kg borneol; for AUC(0-t): read-out: AUC0–120 (converted)
Method: The relative brain targeted coefficient was Re, Re = AUCbrain (i.n./i.g.)/AUCbrain (i.v.) × 100%. The brain/blood drug ratio was Te, Te = AUCbrain/AUCblood × 100%. So the drug target index was DTI, DTI = Te(i.n. /i.g.)/Te(i.v). […] AUC0–120 was 37270.5 ± 4160.6, 32413.6 ± 4573.9 and 6440.1 ± 863.7 […] for i.v., i.n. and i.g., respectively.
as §1, §2, §3
The brains were washed by normal saline to remove excess surface blood and were dried by filter paper. The bloodless brains were homogenized after mixing with normal saline solution 1.5 times to the weight. After centrifugation at 12,000 rpm for 5 min, 600 μL methanol (the brain homogenate was 300 μL) was added in the supernatant to precipitate proteins in the sample. After being vortexed for 1 min, the solution was centrifuged at 12,000 rpm for 5 min. Then, supernatant was removed and evaporated under air stream in a water bath at 60 °C. The residue was dissolved in 100 μL of methanol and vortexed for 30 s, centrifuged at 12,000 rpm for 5 min. 20 μL aliquot supernatant was injected into the HPLC system for analysis.

[4] = octanol/water system; cited from earlier work
[5] = inhaled or intranasal, plasma, i.n.
[6] = ICR, in vivo, po, 18 mg/kg, i.g.
[7] = ICR, inhaled or intranasal, 18 mg/kg, i.n.

COC(=O)C1=CO[C@@H](O[C@@H]2O[C@H](CO)[C@@H](O)[C@H](O)[C@H]2O)[C@@H]2C(CO)=CC[C@H]12 [Ge, geniposide]
intranasal absorption coefficient (K) ([1]; Ge alone): 0.061 h⁻¹
intranasal absorption coefficient (K) ([1]; Ge in Gardenia-Borneol co-compound): 0.11 h⁻¹
Cmax in plasma relative to i.v. ([2]; i.g. vs i.v.): 1/20
Cmax in plasma relative to i.v. ([2]; i.n. vs i.v.): up to 1/2
bioavailability ([2]; in vivo, 18 mg/kg, i.g. vs i.v.): 28.8%
bioavailability ([2]; in vivo, 18 mg/kg, i.v. (reference), F = AUCblood(i.n./i.g.)/AUCblood(i.v.) × 100%): 100%
Cmax ([2]; in vivo, iv, plasma, i.v.): 42400 ± 6270 ng/mL
AUC(0-t) ([2]; in vivo, iv, plasma, i.v.): 5410 ng·h/mL
MRT last ([2]; in vivo, iv, plasma, i.v.): 15 min
Tmax ([2]; in vivo, po, 18 mg/kg, plasma, i.g.): ~30 min
Cmax ([2]; in vivo, po, plasma, i.g.): 1910 ± 327 ng/mL
AUC(0-t) ([2]; in vivo, po, plasma, i.g.): 1560 ng·h/mL
MRT last ([2]; in vivo, po, plasma, i.g.): 42 min
Cmax [2, 5]: 21900 ± 5400 ng/mL
Tmax [2, 5]: 1 min
AUC(0-t) [2, 5]: 4620 ng·h/mL
MRT last [2, 5]: 31.7 min
bioavailability ([2]; plasma, other: i.n. (nasal drops), 18 mg/kg, i.n. vs i.v.): 85.4%
Kp ([3]; ICR, in vivo, i.g.): 0.0689
Kp ([3]; ICR, in vivo, i.n.): 0.117
MRT last ([3]; ICR, in vivo, iv, 18 mg/kg): 48.3 min
Kp ([3]; ICR, in vivo, iv, Te = AUCbrain/AUCblood × 100%): 0.115
Cmax ([3]; ICR, in vivo, iv, i.v.): 1480 ± 145 ng/g
MRT last [3, 6]: 60 min
Tmax [3, 6]: 60 min
Cmax ([3]; ICR, in vivo, po, i.g.): 76.2 ± 22.1 ng/g
MRT last [3, 7]: 51.2 min
Tmax [3, 7]: 3 min
Cmax ([3]; ICR, inhaled or intranasal, i.n.): 747 ± 175 ng/g
AUC0–120 ([3]; i.g.): 6440.1 ± 863.7 ng·min/g
AUC0–120 ([3]; i.n.): 32413.6 ± 4573.9 ng·min/g
AUC0–120 ([3]; i.v.): 37270.5 ± 4160.6 ng·min/g
Re (relative brain targeted coefficient) ([3]; i.g. vs i.v.): 17.28% and 17.28 ^** %
brain peak concentration compared to the i.v. group ([3]; i.g. vs i.v.): 1/20
DTI (drug target index) ([3]; i.n. vs i.v.): 1.02
Re (relative brain targeted coefficient) ([3]; i.n. vs i.v.): 86.97%
brain peak concentration compared to the i.v. group ([3]; i.n. vs i.v.): up to 1/2
DTI (drug target index) ([3]; i.v. (reference), DTI = Te(i.n./i.g.)/Te(i.v.)): 1
Re (relative brain targeted coefficient) ([3]; i.v. (reference), Re = AUCbrain(i.n./i.g.)/AUCbrain(i.v.) × 100%): 100%
AUC(0-t) ([3]; in vivo, inhaled or intranasal, 18 mg/kg, i.n.): 540000 ng·h/mL
AUC(0-t) ([3]; in vivo, iv, 18 mg/kg, i.v.): 621000 ng·h/mL
AUC(0-t) ([3]; in vivo, po, 18 mg/kg, i.g.): 107000 ng·h/mL
Tmax ([3]; in vivo, po, i.g.): ~60 min
log p [4]: −0.97
